Laboratory results published in article PMC8286840, “Identifying SARS-CoV-2 antiviral compounds by screening for small molecule inhibitors of Nsp3 papain-like protease” (Biochemical Journal, 2021).
Counter-ions that a name gives are not always drawn. Like-named read-outs stand apart in the source and are kept apart here.

Tests used:
[1] = molecular target: T1, SARS-CoV-2 PLpro (nsp3 1564–1878) (Severe acute respiratory syndrome coronavirus 2, UniProt P0DTD1); assay: biochemical; parameters: FRET-quenched peptide (Pro3) cleavage by PLpro, 10 min pre-incubation, slope over 20 min, normalised to no-compound control; conditions: high concentration screen, read-out: % of control remaining
Procedure: The plates were organized with columns 3–22 containing the compounds; the remaining columns were used for reaction controls including substrate only and substrate with enzyme but no compound (Figure 3Aii). The PLpro enzyme was pre-incubated with the compounds for 10 min, and then the reaction was initiated by the addition of substrate. […] We incubated the inhibitors with PLpro before the enzymatic reaction so that the slow-binding inhibitors will not be missed out [21]. […] Fluorescence was read on a Spark multimode microplate reader (Tecan) with an excitation wavelength at 330 nm and emission wavelength at 420 nm. […] An amount of 5 µl of the enzyme was pre-incubated with compounds for 10 min before the addition of 15 µl substrate. Fluorescence was monitored at 2 min for 20 min with 3 min intervals giving a total of seven readings.

[2] = molecular target: T1, SARS-CoV-2 PLpro (nsp3 1564–1878); assay: biochemical; parameters: FRET-quenched peptide (Pro3) cleavage by PLpro, 10 min pre-incubation, slope over 20 min, normalised to no-compound control; conditions: low concentration screen, read-out: % of control remaining

For `CCCC[C@@H](NC(=O)[C@@H](Cc1cn(C(=O)OC)c2ccccc12)NC(=O)[C@H](CC(C)(C)C)NC(=O)N1[C@H](C)CCC[C@@H]1C)C(=O)O` [BQ-788 (sodium salt)], the remaining activity at 3.75 µM ([1]; Well no.=8560) was 101% and the remaining activity at 1.25 µM ([2]; Well no.=8560) was 108%.

In the case of `COC(=O)c1c(C)[nH]c(C)c1C(=O)c1ccccc1Cc1ccccc1` [FPL 64176], the remaining activity at 3.75 µM ([1]; Well no.=713) is reported as 94.1% and the remaining activity at 1.25 µM ([2]; Well no.=713) is reported as 97.6%.

With `NC(=O)c1ncn([C@@H]2O[C@H](CO)[C@@H](O)[C@H]2O)n1` [Ribavirin] the remaining activity at 3.75 µM ([1]; Well no.=1256) was 97.1%, the remaining activity at 3.75 µM ([1]; Well no.=2199) was 98.2% and the remaining activity at 1.25 µM ([2]; Well no.=1256) was 96.8%. It also gave a remaining activity at 1.25 µM ([2]; Well no.=2199) of 96.4%.

For `C[C@]12CCC(=O)C=C1[C@@H]1C[C@@H]1[C@H]1[C@@H]3[C@@H]4C[C@@H]4[C@@]4(CCC(=O)O4)[C@@]3(C)CC[C@@H]12` [Drospirenone], the remaining activity at 3.75 µM ([1]; Well no.=5235) was 102% and the remaining activity at 1.25 µM ([2]; Well no.=5235) was 99.4%.

`CN(C)CCn1cc(S(=O)(=O)c2cccc(F)c2)c2cccnc21` [WAY-208466 dihydrochloride] was tested, and the remaining activity at 3.75 µM ([1]; Well no.=6065) was 97.1% and the remaining activity at 1.25 µM ([2]; Well no.=6065) was 98.6%.

`CNC(=O)CN1CCC(Oc2cc3c(Nc4cccc(Cl)c4F)ncnc3cc2OC)CC1` [AZD8931] was tested, and the remaining activity at 3.75 µM ([1]; Well no.=5144) was 102% and the remaining activity at 1.25 µM ([2]; Well no.=5144) was 103%.

For `CCN1C[C@]2(COC)CC[C@H](O)[C@]34C1C(C[C@H]23)[C@@]1(O)C[C@H](OC)[C@H]2C[C@@H]4[C@@H]1[C@H]2OC(C)=O` [Condelphine], the remaining activity at 3.75 µM ([1]; Well no.=3107) was 92.8% and the remaining activity at 1.25 µM ([2]; Well no.=3107) was 93.3%.

With `CNc1cc2c(Nc3cccc(Br)c3)ncnc2cn1` [PD 158780] the remaining activity at 3.75 µM ([1]; Well no.=2499) was 99.3% and the remaining activity at 1.25 µM ([2]; Well no.=2499) was 99.1%.

For `CC(C)NCC(O)COc1ccc(CCOCC2CC2)cc1` (stereo not shown) [Betaxolol], the remaining activity at 3.75 µM ([1]; Well no.=6177) was 97.1% and the remaining activity at 1.25 µM ([2]; Well no.=6177) was 104%.

`O=C(O)/C=C/c1ccc(O)c(O)c1` [Caffeic acid] gave a remaining activity at 3.75 µM ([1]; Well no.=233) of 99.3%, a remaining activity at 3.75 µM ([1]; Well no.=3125) of 104% and a remaining activity at 3.75 µM ([1]; Well no.=3957) of 96.7%. For the same compound, the remaining activity at 3.75 µM ([1]; Well no.=7073) was 95.2%, the remaining activity at 1.25 µM ([2]; Well no.=233) was 99% and the remaining activity at 1.25 µM ([2]; Well no.=3957) was 97%. For the same compound, the remaining activity at 1.25 µM ([2]; Well no.=7073) was 101%.

In the case of `Cc1c(-c2ccnn2C)cc(C(=O)NCc2ccc(S(C)(=O)=O)cn2)c(=O)n1-c1cccc(C(F)(F)F)c1` [Alvelestat (AZD9668)], the remaining activity at 3.75 µM ([1]; Well no.=9174) is reported as 83.8% and the remaining activity at 1.25 µM ([2]; Well no.=9174) is reported as 95.1%.

`COC(=O)c1ccc2c(C(=Nc3ccc(N(C)C(=O)CN4CCN(C)CC4)cc3)c3ccccc3)c(O)[nH]c2c1` [Vargatef] gave a remaining activity at 3.75 µM ([1]; Well no.=2847) of 104% and a remaining activity at 1.25 µM ([2]; Well no.=2847) of 103%.

With `CCCCCCCCCCCCCC(=O)O[C@@H]1[C@@H](C)[C@@]2(O)[C@@H](C=C(CO)C[C@@]3(O)C(=O)C(C)=C[C@@H]23)[C@@H]2C(C)(C)[C@]12OC(C)=O` (racemic) the remaining activity at 3.75 µM ([1]; Well no.=3080) was 98.9% and the remaining activity at 1.25 µM ([2]; Well no.=3080) was 98.8%.

`O=C(O)c1cn(C2CC2)c2cc(N3C[C@@H]4C[C@H]3CN4)c(F)cc2c1=O` [1-cyclopropyl-7-[(1S,4S)-2,5-diazabicyclo[2.2.1]hept-2-yl]-6-fluoro-4-oxo-1,4-dihydro-3-quinolinecarboxylic acid methanesulfonate hydrate] showed a remaining activity at 3.75 µM ([1]; Well no.=5598) of 86.5% and a remaining activity at 1.25 µM ([2]; Well no.=5598) of 91.4%.

In the case of `c1ccc(CN(CC2=NCCN2)c2ccccc2)cc1` [Antazoline (hydrochloride)], the remaining activity at 3.75 µM ([1]; Well no.=7425) is reported as 102% and the remaining activity at 1.25 µM ([2]; Well no.=7425) is reported as 112%.

In the case of `O=C(/C=C/c1ccc(O)cc1)c1ccc(O)cc1O` [Isoliquiritigenin], the remaining activity at 3.75 µM ([1]; Well no.=963) is reported as 101% and the remaining activity at 1.25 µM ([2]; Well no.=963) is reported as 99.7%.

Compound `Nn1nnc2ccccc21` [1-Aminobenzotriazole] has a remaining activity at 3.75 µM ([1]; Well no.=253) of 99% and a remaining activity at 1.25 µM ([2]; Well no.=253) of 98.6%.

`COc1cc(/C=C/C(=O)CC(=O)/C=C/c2ccc(O)cc2)ccc1O` [(1E,6E)-1-(4-hydroxy-3-methoxyphenyl)-7-(4-hydroxyphenyl)-1,6-heptadiene-3,5-dione] gave a remaining activity at 3.75 µM ([1]; Well no.=5795) of 95.2% and a remaining activity at 1.25 µM ([2]; Well no.=5795) of 90.1%.

`CC1=C(/C=C/C(C)=C/C=C/C(C)=C/C(=O)O)C(C)(C)CCC1` [Retinoic acid] was tested, and the remaining activity at 3.75 µM ([1]; Well no.=1252) was 98.8%, the remaining activity at 3.75 µM ([1]; Well no.=1628) was 99.6% and the remaining activity at 3.75 µM ([1]; Well no.=3132) was 104%. It also gave a remaining activity at 3.75 µM ([1]; Well no.=4426) of 101%, a remaining activity at 3.75 µM ([1]; Well no.=6163) of 108% and a remaining activity at 1.25 µM ([2]; Well no.=1252) of 98%. For the same compound, the remaining activity at 1.25 µM ([2]; Well no.=1628) was 95.7%, the remaining activity at 1.25 µM ([2]; Well no.=3132) was 102% and the remaining activity at 1.25 µM ([2]; Well no.=4426) was 101%. The remaining activity at 1.25 µM ([2]; Well no.=6163) was 106%.

Work on `COc1cccc(NC(=O)/C=C/c2ccc(Cl)cc2)c1` [SB-366791] yielded a remaining activity at 3.75 µM ([1]; Well no.=1260) of 103% and a remaining activity at 1.25 µM ([2]; Well no.=1260) of 104%.

For `C#C[C@]1(O)CC[C@H]2[C@@H]3CCc4cc(O)ccc4[C@H]3CC[C@@]21C` [Ethynyl Estradiol], the remaining activity at 3.75 µM ([1]; Well no.=6487) was 102% and the remaining activity at 1.25 µM ([2]; Well no.=6487) was 103%.

With `CC(C)c1cc(-c2ccc(F)c3ccccc23)nc(N)n1` [RS 127445] the remaining activity at 3.75 µM ([1]; Well no.=8477) was 105% and the remaining activity at 1.25 µM ([2]; Well no.=8477) was 107%.

With `NC1CCN(c2nc3c(cc2F)c(=O)c(C(=O)O)cn3-c2ccc(F)cc2F)C1` (stereo not shown) [Tosufloxacin] the remaining activity at 3.75 µM ([1]; Well no.=1962) was 93.3% and the remaining activity at 1.25 µM ([2]; Well no.=1962) was 98.1%.

Compound `COc1cc2ncnc(N3CCN(C(=O)Nc4ccc(Oc5ccccc5)cc4)CC3)c2cc1OC` [PDGF Receptor Tyrosine Kinase Inhibitor III] has a remaining activity at 3.75 µM ([1]; Well no.=2505) of 106% and a remaining activity at 1.25 µM ([2]; Well no.=2505) of 104%.

With `CNC1(C)C2CCC(C2)C1(C)C` (stereo not shown) [Mecamylamine] the remaining activity at 3.75 µM ([1]; Well no.=1556) was 102% and the remaining activity at 1.25 µM ([2]; Well no.=1556) was 103%.

In the case of `COc1ccc(C[C@@H]2c3cc(OC)c(OC)cc3CC[N@+]2(C)CCC(=O)OCCCCCOC(=O)CC[N@@+]2(C)CCc3cc(OC)c(OC)cc3[C@H]2Cc2ccc(OC)c(OC)c2)cc1OC` [Atracurium besylate], the remaining activity at 3.75 µM ([1]; Well no.=2133) is reported as 98.2% and the remaining activity at 1.25 µM ([2]; Well no.=2133) is reported as 92.8%.

`COC(=O)C1=C(C#N)NC(C)=C(C(=O)OC(C)C)C1c1cccc([N+](=O)[O-])c1` (stereo not shown) [5-isopropyl 3-methyl 2-cyano-6-methyl-4-(3-nitrophenyl)-1,4-dihydro-3,5-pyridinedicarboxylate] gave a remaining activity at 3.75 µM ([1]; Well no.=6056) of 89.3% and a remaining activity at 1.25 µM ([2]; Well no.=6056) of 94%.

`OC[C@@H](O)[C@H](O)[C@H](O)[C@@H](O)CO` [Dulcite] was tested, and the remaining activity at 3.75 µM ([1]; Well no.=6883) was 94.4% and the remaining activity at 1.25 µM ([2]; Well no.=6883) was 99.2%.

In the case of `CN(C)N(C)C(=O)[C@@]1(Cc2ccccc2)CCCN(C(=O)[C@@H](Cc2c[nH]c3ccccc23)NC(=O)C(C)(C)N)C1` [Anamorelin], the remaining activity at 3.75 µM ([1]; Well no.=8437) is reported as 96.9% and the remaining activity at 1.25 µM ([2]; Well no.=8437) is reported as 97.3%.
